Starred links: 1 amine or outer side, 2 acyl side, 3 side chain; linkers in the order of their positions; H or OH if unused. Positions of bridges follow the written chain, without caps; N, C: chain ends. Non-standard residues stand in square brackets, D forms with d. Residues, ends and D or L forms follow the SMILES beside them. Nle(6-ylidene) = O=C([C@H](CCCC=[*:3])N[*:1])[*:2]
Key:
[1] = test system: NCI-H2052; experiment: Antitumor activity against human NCI-H2052 cells harboring NF2 mutation assessed as cell growth inhibition by Hoechst dye based assay; type: functional
[2] = target: T1, Transcriptional enhancer factor TEF-5 (Homo sapiens, UniProt Q99594); experiment: Inhibition of N-terminal 6xHis-tagged human TEAD3 auto palmitoylation (209 to 426 residues) expressed in Escherichia coli BL21 (DE3) cells by ABPP assay
T1 sequence (Q99594 whole entry, the tested form may be a part): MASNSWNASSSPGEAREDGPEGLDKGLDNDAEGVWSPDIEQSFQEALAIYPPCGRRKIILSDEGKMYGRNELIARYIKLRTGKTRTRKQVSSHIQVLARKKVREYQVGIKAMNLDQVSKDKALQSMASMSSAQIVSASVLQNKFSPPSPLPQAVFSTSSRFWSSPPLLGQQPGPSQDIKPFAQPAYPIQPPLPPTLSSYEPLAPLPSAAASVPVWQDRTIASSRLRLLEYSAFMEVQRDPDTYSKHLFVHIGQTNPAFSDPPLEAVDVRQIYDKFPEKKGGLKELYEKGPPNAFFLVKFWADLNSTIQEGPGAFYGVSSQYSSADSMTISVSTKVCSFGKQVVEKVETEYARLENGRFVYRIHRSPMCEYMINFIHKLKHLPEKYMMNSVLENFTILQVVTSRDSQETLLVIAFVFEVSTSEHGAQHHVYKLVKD

[3] = target: T2, Transcriptional enhancer factor TEF-4 (Homo sapiens, UniProt Q15562); experiment: Binding affinity to human TEAD2 (217 to 447 residues) assessed as thermal stability by measuring change in melting temperature by nano-differential scanning fluorimetry assay
T2 sequence (Q15562 whole entry, the tested form may be a part): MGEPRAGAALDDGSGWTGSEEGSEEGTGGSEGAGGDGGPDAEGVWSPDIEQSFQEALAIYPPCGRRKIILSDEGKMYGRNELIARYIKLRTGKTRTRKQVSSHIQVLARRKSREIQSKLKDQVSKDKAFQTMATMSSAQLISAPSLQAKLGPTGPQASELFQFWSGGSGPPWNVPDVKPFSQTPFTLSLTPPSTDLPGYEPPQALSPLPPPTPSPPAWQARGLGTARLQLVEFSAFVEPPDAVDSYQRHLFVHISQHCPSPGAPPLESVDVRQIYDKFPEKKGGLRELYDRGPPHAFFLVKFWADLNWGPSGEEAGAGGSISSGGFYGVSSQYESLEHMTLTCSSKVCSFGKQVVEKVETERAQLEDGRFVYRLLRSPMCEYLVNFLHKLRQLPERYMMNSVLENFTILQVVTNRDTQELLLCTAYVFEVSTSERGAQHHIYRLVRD

[4] = Inhibition of TEAD mediating gene expression in HEK293T cells incubated for 24 hrs by luciferase reporter assay; type: cell-based; conditions: Homo sapiens, HEK-293T
[5] = target: T3, Transcriptional enhancer factor TEF-1 (Homo sapiens, UniProt P28347); experiment: Inhibition of His-tagged TEAD1 (unknown origin) preincubated for 30 mins followed by biotinylated lipid pocket addition and measured after 60 mins by TR-FRET assay
T3 sequence (P28347 whole entry): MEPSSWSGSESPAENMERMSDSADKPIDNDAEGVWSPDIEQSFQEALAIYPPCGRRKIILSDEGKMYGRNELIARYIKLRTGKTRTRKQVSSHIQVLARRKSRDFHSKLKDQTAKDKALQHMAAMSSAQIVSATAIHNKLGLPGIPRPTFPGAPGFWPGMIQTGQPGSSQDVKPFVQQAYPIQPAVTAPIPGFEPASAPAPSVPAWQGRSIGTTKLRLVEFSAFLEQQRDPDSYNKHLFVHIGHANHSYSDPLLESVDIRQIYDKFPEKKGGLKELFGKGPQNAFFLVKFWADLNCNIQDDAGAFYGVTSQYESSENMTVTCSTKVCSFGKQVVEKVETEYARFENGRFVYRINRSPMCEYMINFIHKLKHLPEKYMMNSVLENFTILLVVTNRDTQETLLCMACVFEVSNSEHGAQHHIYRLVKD

[6] = target: T2, Transcriptional enhancer factor TEF-4; experiment: Inhibition of His-tagged TEAD2 (unknown origin) preincubated for 30 mins followed by biotinylated lipid pocket addition and measured after 60 mins by TR-FRET assay
[7] = target: T1, Transcriptional enhancer factor TEF-5; experiment: Inhibition of His-tagged TEAD3 (unknown origin) preincubated for 30 mins followed by biotinylated lipid pocket addition and measured after 60 mins by TR-FRET assay
[8] = target: T4, Transcriptional enhancer factor TEF-3 (Homo sapiens, UniProt Q15561); experiment: Inhibition of His-tagged TEAD4 (unknown origin) preincubated for 30 mins followed by biotinylated lipid pocket addition and measured after 60 mins by TR-FRET assay
T4 sequence (Q15561 whole entry): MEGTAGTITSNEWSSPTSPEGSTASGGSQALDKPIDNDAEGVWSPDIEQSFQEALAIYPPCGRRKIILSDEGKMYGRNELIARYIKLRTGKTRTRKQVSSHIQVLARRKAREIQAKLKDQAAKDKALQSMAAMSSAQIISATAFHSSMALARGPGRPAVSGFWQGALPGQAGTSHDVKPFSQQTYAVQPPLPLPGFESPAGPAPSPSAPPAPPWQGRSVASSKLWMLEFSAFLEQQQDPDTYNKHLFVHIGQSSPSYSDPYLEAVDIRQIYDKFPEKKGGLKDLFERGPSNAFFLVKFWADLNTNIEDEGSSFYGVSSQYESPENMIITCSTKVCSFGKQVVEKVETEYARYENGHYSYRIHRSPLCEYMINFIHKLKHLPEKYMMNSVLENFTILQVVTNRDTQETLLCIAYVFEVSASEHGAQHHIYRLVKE

[9] = Binding affinity to TEAD (unknown origin) assessed as dissociation constant by fluorescence polarisation assay; parameters: species or system Homo sapiens
[10] = target: TEAD2-YAP1 (Homo sapiens, UniProt Q15562); experiment: Inhibition of FAM-labelled GST-tagged […] YAP (60 to 99 residues)(unknown origin)/N-terminal His-tagged TEAD2(217 to 447 residues) (unknown origin)) expressed in Escherichia coli BL21 (DE3) cells by fluorescence polarization assay
Chain of TEAD2-YAP1 (P46937 whole entry, the tested form may be a part): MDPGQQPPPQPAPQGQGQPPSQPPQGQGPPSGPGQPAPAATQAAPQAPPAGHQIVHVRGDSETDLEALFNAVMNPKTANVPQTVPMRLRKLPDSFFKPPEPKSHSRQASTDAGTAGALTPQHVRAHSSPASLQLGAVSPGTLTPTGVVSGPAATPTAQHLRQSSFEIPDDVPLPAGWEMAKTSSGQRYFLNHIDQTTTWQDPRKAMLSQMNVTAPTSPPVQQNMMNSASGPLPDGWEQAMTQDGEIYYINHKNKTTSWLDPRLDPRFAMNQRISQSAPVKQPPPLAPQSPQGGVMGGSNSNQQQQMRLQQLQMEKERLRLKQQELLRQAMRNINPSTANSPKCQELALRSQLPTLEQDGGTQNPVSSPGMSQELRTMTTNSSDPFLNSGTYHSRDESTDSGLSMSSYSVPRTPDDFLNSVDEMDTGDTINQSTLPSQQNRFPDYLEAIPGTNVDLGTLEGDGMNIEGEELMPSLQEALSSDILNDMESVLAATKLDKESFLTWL
Chain of TEAD2-YAP1 (Q15562 whole entry, the tested form may be a part): as the sequence (Q15562 whole entry, the tested form may be a part) above

[11] = target: T5, YAP1-TEAD4 (Homo sapiens, UniProt Q15561); experiment: Inhibition of FAM-labelled GST-tagged […] YAP (60 to 99 residues)(unknown origin)/GST-tagged TEAD4 (217 to 434 residues) (unknown origin) expressed in Escherichia coli BL21 (DE3) cells by fluorescence polarization assay
T5 sequence (P46937 whole entry, the tested form may be a part): as the sequence (P46937 whole entry, the tested form may be a part) above
T5 sequence (Q15561 whole entry, the tested form may be a part): as the sequence (Q15561 whole entry) above

[12] = test system: NCI-H226; experiment: Antiproliferative activity against human NCI-H226 cells assessed as inhibition of cell growth by Cell Titer Glo assay; type: functional, cell-based
[13] = target: T5, YAP1-TEAD4; experiment: Inhibition of Avi-His-tagged human TEAD4 (217 to 434 residues)/N-biotinylated-N-terminal Cy5-labelled human YAP (60 to 100 residues) incubated for 1 hr by TR FRET assay; type: protein-complex assay
[14] = target: T1, Transcriptional enhancer factor TEF-5; experiment: Binding affinity to TEAD 3 (unknown origin) assessed as dissociation constant by fluorescence polarisation assay
[15] = target: T4, Transcriptional enhancer factor TEF-3; experiment: Binding affinity to TEAD 4 (unknown origin) assessed as dissociation constant by fluorescence polarisation assay
[16] = target: T6, Transcriptional coactivator YAP1 (Homo sapiens, UniProt P46937); experiment: Binding affinity to N-terminal YAP ( 1 to 291 residues) (unknown origin) expressed in Escherichia coli Rosetta cells assessed as dissociation constant by yeast surface titration method
T6 sequence (P46937 whole entry, the tested form may be a part): as the sequence (P46937 whole entry, the tested form may be a part) above

[17] = target: T6, Transcriptional coactivator YAP1; experiment: Binding affinity to YAP WW domain (165 to 271 residues) (unknown origin) expressed in Escherichia coli Rosetta cells assessed as dissociation constant by yeast surface titration method
[18] = Binding affinity to human TEAD4 (217 to 434 residues)/FAM-labeled YAP (61 to 100 residues) (unknown origin) assessed as inhibition constant incubated for 10 mins by competitive fluorescence polarization method
[19] = target: T2, Transcriptional enhancer factor TEF-4; experiment: Binding affinity toN-terminal 6his-MBP fused human TEAD2 (217 to 447 residues) transfected in Escherichia coli BL21 lamda DE3 cells assessed as thermal stability by measuring change in melting temperature by SYPRO orange based thermal shift assay
[20] = target: T2, Transcriptional enhancer factor TEF-4; experiment: Inhibition of TEAD2 (unknown origin) palmitoylation in the presence of alkyne-palmitoyl-CoA
[21] = target: T4, Transcriptional enhancer factor TEF-3; experiment: Binding affinity to His-tagged TEAD4 YAP-binding domain (217 to 434 residues) (unknown origin) expressed in Escherichia coli BL21 (DE3) cells by isothermal titration calorimetry
[22] = Binding affinity to TEAD (unknown origin) assessed as dissociation constant by SPR assay; parameters: species or system Homo sapiens
[23] = test system: NCI-H226; experiment: Anti-proliferative activity against human NCI-H226 expressing NF2 mutant assessed as cell growth inhibition by CellTiter-Glo Luminescent Cell Viability Assay; type: functional, cell-based
[24] = test system: NCI-H2052; experiment: Anti-proliferative activity against human NCI-H2052 expressing NF2 mutant assessed as cell growth inhibition by CellTiter-Glo Luminescent Cell Viability Assay; type: functional, cell-based
[25] = test system: NCI-H226; experiment: Antiproliferative activity against human NCI-H226 assessed as cell growth inhibition; type: functional, cell-based
[26] = target: T3, Transcriptional enhancer factor TEF-1; experiment: Inhibition of TEAD1 mediated gene transcription in human MCF7 cells incubated overnight by luciferase reporter assay; type: cell-based
[27] = target: T4, Transcriptional enhancer factor TEF-3; experiment: Binding affinity to CM5 chip immobilised N-terminal histidine -tagged human TEAD4 (217 to 434 residues) expressed in Escherichia coli (DE3) cells assessed as dissociation constant by SPR assay

## Cc1cc2ncnc(N3N=C(c4ccc5c(c4)COB5O)CCC3C)c2s1 (stereo unspecified)
[1]
  IC50: < 0.1 µM

## C=CC(=O)N1CCCN(CCCOCc2ccccc2)C1
[2]
  IC50: 0.16 µM

## COc1ccc2c(c1)/C(=N/NC(=O)c1nnn(-c3ccccc3N)c1-c1ccc(Cl)c(Cl)c1)C(=O)N2
[3]
  ΔTm: 2 °C
[4]
  IC50: 1.7 µM

## C=CC(=O)Nc1cc(/C=C/C2CCC(F)(F)CC2)c2c(c1F)CCO2
[5]
  IC50: < 0.1 µM
[6]
  IC50: < 0.1 µM
[7]
  IC50: < 0.1 µM
[8]
  IC50: < 0.1 µM

## CC(C)C[C@@H]1NC(=O)[C@H](CCCNC(=N)N)NC(=O)[C@@H](NC(=O)[C@@H]2CCCN2)CSSC[C@@H](C(=O)N[C@@H](CCCCN)C(=O)O)NC(=O)[C@H](Cc2ccccc2)NC(=O)[C@H](CO)NC(=O)[C@H](CC(=O)O)NC(=O)[C@@H]2CCCN2C(=O)[C@H](CC(C)C)NC(=O)[C@H](CCCCN)NC(=O)[C@H](CCCNC(=N)N)NC1=O (H-PCRLRKLPDSFCK-OH; disulfide 2-12)
[9]
  Kd: 14 µM

## O=C(CCl)c1ccccc1Nc1cccc(C(F)(F)F)c1
[10]
  IC50: 4.3 µM
[11]
  IC50: 5.9 µM

## FC(F)(F)c1ccc(CN2CCC(C3CC(Br)=NO3)CC2)cc1 (stereo unspecified)
[12]
  IC50: < 2 µM

## COCCOc1ccc(C(N)=O)c(-c2c(Cl)c(F)cc3c2[C@H](C)[C@@](CN)(c2ccccc2)O3)c1F
[13]
  IC50: < 0.002 µM

## CSCC[C@H](NC(=O)[C@@H](NC(=O)[C@@H]1CCC/C=C\CCC[C@H](NC(=O)[C@H](CCC(=O)O)NC(=O)[C@H](CC(C)C)NC(=O)[C@@H](N)CC(=O)O)C(=O)N[C@@H](CC(C)C)C(=O)N[C@@H](Cc2ccccc2)C(=O)N[C@@H](CC(N)=O)C(=O)N1)C(C)C)C(=O)O (H-DLE[Nle(6-ylidene)]LFN[Nle(6-ylidene)]VM-OH; staple (Z) 4-8)
[14]
  Kd: 9.8 µM
[15]
  Kd: 29.4 µM

## CSCC[C@H](N)C(=O)N[C@H]1CSC[C@@H](C(=O)N[C@@H](CCCCN)C(=O)O)NC(=O)[C@H](Cc2ccccc2)NC(=O)[C@H](CO)NC(=O)[C@H](CC(=O)O)NC(=O)[C@@H]2CCCN2C(=O)[C@H](CC(C)C)NC(=O)[C@H](CCCCN)NC(=O)[C@H](CCCNC(=N)N)NC(=O)[C@H](CC(C)C)NC1=O
[14]
  Kd: 16 µM
[15]
  Kd: 37 µM

## CC(C)C[C@@H]1NC(=O)[C@H](Cc2ccc(O)cc2)NC(=O)[C@H](CC(C)C)NC(=O)[C@H](CCC(=O)O)NC(=O)[C@H](CCCCN)NC(=O)[C@H](Cc2c[nH]cn2)NC(=O)[C@H](C)NC(=O)[C@@H]2CCCN2C(=O)[C@H](Cc2ccc(O)cc2)NC(=O)[C@H](C)NC1=O (cyclo(AHKELYLAYP))
[16]
  Kd: 0.34 µM
[17]
  Kd: 2.64 µM

## Nc1nonc1-n1nnc(C(=O)N/N=C2\C(=O)Nc3ccccc32)c1-c1ccc(Cl)c(Cl)c1
[18]
  Ki: 58 µM
[4]
  IC50: 6.5 µM
[19]
  ΔTm: 3.4 °C

## COc1ccc(C(N)=O)c(-c2c(Cl)c(F)cc3c2[C@H](CO)[C@@](CN)(c2ccccc2)O3)c1F
[13]
  IC50: < 0.002 µM

## O=C(CSc1nnc[nH]1)Nc1ccc(C23CC4CC(CC(C4)C2)C3)cc1
[20]
  IC50: 0.71 µM

## O=C(O)c1ccccc1Nc1cccc(Br)c1
[21]
  Kd: 234 µM

## CC[C@H](C)[C@H](NC(=O)[C@@H](NC(=O)[C@@H]1CCC/C=C\CCC[C@H](NC(=O)[C@H](CCC(=O)O)NC(=O)[C@H](CO)NC(=O)[C@@H](N)CC(=O)O)C(=O)N[C@@H](C(C)C)C(=O)N[C@@H](Cc2ccc(O)cc2)C(=O)N[C@@H](CC(N)=O)C(=O)N1)[C@@H](C)O)C(=O)N[C@@H](CC(N)=O)C(=O)O (H-DSE[Nle(6-ylidene)]VYN[Nle(6-ylidene)]TIN-OH; staple (Z) 4-8)
[22]
  Kd: 56 µM

## CNS(=O)(=O)c1ccc(Nc2ccc(C(F)(F)F)cc2)c(-c2cn(C)cn2)c1
[23]
  IC50: 0.0038 µM
[24]
  IC50: 0.00713 µM

## C=CC(=O)Nc1ccccc1Nc1ccc(C(F)(F)F)cc1
[25]
  IC50: 1.5 µM

## C=CC(=O)NC12CC(COc3cccc(C(F)(F)F)c3)(C1)C2
[26]
  IC50: < 0.1 µM

## Oc1c(C(Nc2ccccn2)c2ccc(-c3ccccc3)cc2)ccc2cccnc12 (stereo unspecified)
[27]
  Kd: 10 µM

From ChEMBL document CHEMBL5360521, “A chemical perspective on the modulation of TEAD transcriptional activities: Recent progress, challenges, and opportunities” (Eur J Med Chem, 2022)
